From patent US11851459B2, “Methods and uses of modulators of anaphase promoting complex (APC) activity for treating cancer” (University of Saskatchewan, priority 2018, dated 2023)

Assays:
[1] = target: T1, Apc10 (Saccharomyces cerevisiae, UniProt P53068); assay: Yeast 2-hybrid (Y2H) assay, Apc10 bait; assay type: binding
T1 construct: expressed in transfected cells; host or cells: yeast Y2H cells
T1 sequence (P53068 1-250): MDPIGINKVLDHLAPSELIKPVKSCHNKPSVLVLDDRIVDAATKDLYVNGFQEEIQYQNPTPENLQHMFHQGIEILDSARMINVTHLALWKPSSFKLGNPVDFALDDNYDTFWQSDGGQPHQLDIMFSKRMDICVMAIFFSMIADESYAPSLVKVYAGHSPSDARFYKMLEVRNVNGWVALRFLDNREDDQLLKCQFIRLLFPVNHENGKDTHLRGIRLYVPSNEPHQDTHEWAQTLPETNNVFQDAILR
Description: (§1) The reverse genetic screen utilized a yeast 2-hybrid (Y2H) protocol that selected for peptides that bound to the APC subunits Apc5 or Apc10 (see FIG. 8 for APC structure), to assess whether peptide-binding might modify APC function. Peptides that bound APC subunits were then assayed for those that suppressed APC mutant defects.
A library of random small peptides were cloned into a Thioredoxin (Trx) scaffold (see FIG. 9 for Trx-peptide structure) and expressed from a galactose-inducible Y2H prey vector in cells expressing the Apc10 bait vector (the modified Apc10 is still part of the complete APC complex). Six peptides that reproducibly interacted with the Apc10 bait construct in Y2H assays were identified (FIG. 1A) and were examined further. Cells will only grow in this assay if the peptide interacts with Apc5 or Apc10.
To identify peptides that bound to either Apc5 or Apc10 proteins using a yeast 2-hybrid (Y2H) screen, random small peptides were cloned into the TrxA scaffold (library provided by R. Geyer; FIG. 9) and expressed from a galactose-inducible Y2H prey vector in cells harboring either the APC5 or APC10 genes cloned into the Y2H bait vectors (APC5/APC10 bait constructs complement APC mutant defects).
(§2) Over 100 peptides that bound either Apc5 or Apc10 were recovered from millions screened. Six peptides that reproducibly interacted with the Apc5 or Apc10 bait construct in Y2H assays were examined further. Vectors expressing these 6 peptides were transformed into WT or APC mutant cells and assessed for ts growth.

[2] = tested on: apc5 temperature sensitive mutant and/or apc10Δ mutant; assay: Viability of APC mutant yeast (spot dilution); assay type: cell-based
Excerpt: Suitable APC activators also include APC activators that increase the cell viability of an wild-type and/or an APC mutant cell by at least 10%, at least 20%, at least 30%, at least 40%, at least 50%, at least 60%, at least 70% or at least 80% compared to a cell with wild-type APC function. […] Examples of yeast cells with defective APC function include apc5 and apc10 mutants. An example of an apc5 mutant is the apc5 temperature sensitive mutant described herein. An example of an apc10 mutant is the apc10 deletion mutant described herein. Viability of a yeast mutant can be measured for example, by the spot dilution assays described herein or any other method known in the art.
as §1, §2

[3] = tested on: APC (substrates Cyclin B, Securin, Cdc20, HURP); assay: APC substrate westerns in MDA-MB-231 cells expressing peptides; assay type: cell-based, human
Description: A. Transient transfection of the C43-4 peptide plasmid into human triple negative MDA-MB-231 breast cancer cells followed by Western blot analysis of lysates against Cyclin B, Securin and Cdc20 showing enhanced protein loss. B. Cells in A were treated with DOX (1 uM) for 48 hrs with cell viability measured using an MTT assay kit. The experiment was done in triplicate with standard error of the means shown.
A. Stable integration of C43-4 in MDA-MB-231 cells was established by selection of transfected cells on Geneticin for 7 days. Westerns against APC substrates show APC activation. B. Cells in A were treated with DOX (1 uM) for 48 hrs with cell viability measured using an MTT assay kit. Mean and SEM of 3 biological repeats.
A. TNBC MDA-MB-231 cells stably expressing APC binding peptides activate the APC. Cells were grown to confluence and then used to prepare protein lysates. The lysates were used to measure levels of the APC substrate CDC20, which will be reduced if the APC is activated. Cells stably expressing the pcDNA empty vector were used as a control. B. In a similar experiment, MDA-MB-231 cells stably expressing the APC binding peptides shown, or the empty vector control, were used to measure protein levels of the APC substrate HURP using Westerns. C. Triplicate blots as in B were scanned, normalized to tubulin and plotted. Error of the mean is shown. Significant changes are indicated. D. MDA-MB-231 cells stably expressing the empty pcDNA vector, or the C43-4 and C13-3 APC binding peptides, were treated with 1 μM Doxorubicin for 24 hrs. Cell viability was measured using an MTT viability assay.
The C43-4 peptide sequence was cloned into the human expression vector pcDNA. This construct was transiently, and stably, expressed in human breast cancer cell line MDA-MB-231. […] In 231 cells, which are triple negative, aggressive and somewhat resistant to Doxorubicin, the transiently and stably transfected C43-4 peptide resensitized them to DOX treatment (FIGS. 22B and 23B).
In FIG. 26B, MDA-MB-231 cells were also stably transfected with the peptides C1-8, C2-4B, C3-1B, and C9-5. Levels of the APC substrate HURP were measured in lysates prepared from these cells. […] The empty vector pcDNA was also stably expressed in 231 cells and used as a control.

[4] = tested on: MDA-MB-231 cells; assay: Scratch assay, migration of MDA-MB-231 cells; assay type: cell-based, human
Description: A. An equal number of MDA-MB-231 TNBC cells were grown to confluence in 6 well plates. The cells were then treated with increasing doses of metformin (0, 1, 5 and 10 mM) and a scratch was made in the cell lawn creating a void. At the times shown the number of cell that migrated into the void were counted. The experiment was repeated twice. B. WT MDA-MB-231 cells and cells stably expressing the C43-4 plasmid were grown as in A. Control cells were left untreated, with other cells treated with the DMSO control, 1 uM DOX or 2.5 uM M2I-1. A void was created in the cell lawn and the number of cells that entered the void were scored as above. This experiment was repeated 4 times. This experiment was also repeated 4 times in an independently generated stable C43-4 cell line with similar results. The error of the mean is shown. C. WT and MDA-MB-231 cells stably expressing the C2-4B peptide plasmid were used for the scratch assay as described above. D. WT and MDA-MB-231 cells stably expressing the C13-3 peptide plasmid were used for the scratch assay as described above. The experiments in C and D were only performed once.
Assays using WT and C43-4 expressing cells have been done 4 times. Assays using C13-3 and C2-4B cells have only been conducted once. Metformin treated cells have been used twice. For scratch assays, a scratch is made down a confluent plate of cells, leaving a void. The number of cells that migrate back into the void over time is determined.

[5] = transiently transfected MDA-MB-231

Sequence	binds Apc10 in a yeast 2 hybrid assay [1]	viability of an APC mutant [2]	levels of the APC substrate HURP ([3]; MDA-MB-231 stably transfected, normalized to tubulin)	metastatic potential / in vitro migration [4]	levels of the APC substrate CDC20 ([3]; MDA-MB-231 stably expressing peptides)	protein levels of CyclinB ([3]; stably transfected MDA-MB-231)	APC substrate Cdc20 [3, 5]	APC substrate Cyclin B [3, 5]	APC substrate Securin [3, 5]
RMPQWWQWMWV [C2-4B]	Binds Apc10	increases the viability of an APC mutant	Only C1-8 did not reduce HURP levels	inhibit the in vitro migration					
NGSSHNDLRVRRLTLISRLC [C43-4]	Binds Apc10	increases the viability		inhibit the in vitro migration	reduce levels	reduced protein levels	reduced	reduced	reduced
